From ChEMBL document CHEMBL1671624, “Efficacy of quinoxaline-2-carboxylate 1,4-di-N-oxide derivatives in experimental tuberculosis” (Antimicrob Agents Chemother, 2008) come the findings set out here.

What all share (type): functional
Assay [1] concerns Mycobacterium tuberculosis. The assay can be described thus: Antibacterial activity against rifampin-resistant Mycobacterium tuberculosis by microplate Alamar Blue assay. (The colour change of resazurin is a common sign of viable cells or microbes.)
The test system of assay [2] is Mycobacterium tuberculosis. Nature of the assay: Antibacterial activity against ethambutol-resistant Mycobacterium tuberculosis by microplate Alamar Blue assay.
The subject of assay [3] is Mycobacterium tuberculosis. The assay can be described thus: Antibacterial activity against kanamycin-resistant Mycobacterium tuberculosis by microplate Alamar Blue assay.
Assay [4] deals with Mycobacterium tuberculosis. Nature of the assay: Antibacterial activity against ciprofloxacin-resistant Mycobacterium tuberculosis by microplate Alamar Blue assay.
In assay [5] the test system is Mycobacterium tuberculosis. Nature of the assay: Antibacterial activity against ethionamide-resistant Mycobacterium tuberculosis by microplate Alamar Blue assay.
The subject of assay [6] is Mycobacterium tuberculosis. The assay can be described thus: Antibacterial activity against thiacetazone-resistant Mycobacterium tuberculosis by microplate Alamar Blue assay.
Assay [7] relates to Mycobacterium tuberculosis. Nature of the assay: Antibacterial activity against isoniazid-resistant Mycobacterium tuberculosis by microplate Alamar Blue assay.

By MIC is commonly meant the lowest concentration found to suppress growth. Read a high MIC as a less susceptible organism.

In brackets after ≈: the same amount, converted by molar mass.

Regarding `CCOC(=O)c1c(C)[n+]([O-])c2cc(C)c(C)cc2[n+]1[O-]`, the MIC in assay [1] is not above 3.13 µg/mL; in assay [2], not above 3.13 µg/mL; in assay [3] it was not above 3.13 µg/mL; in assay [4], 12.5 µg/mL (≈ 45.2 µM); in assay [5] it was 6.25 µg/mL (≈ 22.6 µM); in assay [6] it was not above 3.13 µg/mL. In assay [7], this compound registered an MIC of 6.25 µg/mL (≈ 22.6 µM).
With `CCOC(=O)c1c(C)[n+]([O-])c2ccc(C)cc2[n+]1[O-]`, the MIC in assay [1] is 3.13 µg/mL (≈ 11.9 µM); in assay [4], 6.25 µg/mL (≈ 23.8 µM); in assay [5], 6.25 µg/mL (≈ 23.8 µM); in assay [6], 0.39 µg/mL (≈ 1.49 µM).
For `CCOC(=O)c1c(C)[n+]([O-])c2ccccc2[n+]1[O-]`, the minimal inhibitory concentration (MIC) is 1.56 µg/mL (≈ 6.28 µM) in assay [1], 1.56 µg/mL (≈ 6.28 µM) in assay [3], 3.13 µg/mL (≈ 12.6 µM) in assay [4] and 1.56 µg/mL (≈ 6.28 µM) in assay [7].
With `CCOC(=O)c1c(C)[n+]([O-])c2cc(Cl)c(Cl)cc2[n+]1[O-]`, the MIC in assay [1] is 0.2 µg/mL (≈ 0.631 µM); in assay [2] it was 0.2 µg/mL (≈ 0.631 µM); in assay [3] it was not above 0.1 µg/mL; in assay [4], 0.2 µg/mL (≈ 0.631 µM); in assay [7], 0.39 µg/mL (≈ 1.23 µM).
With `COCCOC(=O)c1c(C)[n+]([O-])c2cc(Cl)c(Cl)cc2[n+]1[O-]`, the MIC in assay [1] is not above 0.2 µg/mL; in assay [4], 0.39 µg/mL (≈ 1.12 µM); in assay [5], 0.78 µg/mL (≈ 2.25 µM); in assay [6] it was 0.39 µg/mL (≈ 1.12 µM); in assay [7], not above 0.2 µg/mL.
Take `Cc1ccc2c(c1)[n+]([O-])c(C(=O)OCc1ccccc1)c(C)[n+]2[O-]`: the MIC in assay [1] turned out to be 0.39 µg/mL (≈ 1.2 µM); in assay [4], 0.39 µg/mL (≈ 1.2 µM); in assay [5] it was 1.56 µg/mL (≈ 4.81 µM); in assay [6] it was 0.39 µg/mL (≈ 1.2 µM).
Regarding `Cc1c(C(=O)OCc2ccccc2)[n+]([O-])c2ccccc2[n+]1[O-]`, the MIC in assay [1] is 0.2 µg/mL (≈ 0.645 µM); in assay [4] it was 0.1 µg/mL (≈ 0.322 µM); in assay [5], 0.4 µg/mL (≈ 1.29 µM); in assay [6] it was 0.2 µg/mL (≈ 0.645 µM); in assay [7] it was 0.2 µg/mL (≈ 0.645 µM).
Turning to `Cc1c(C(=O)OCc2ccccc2)[n+]([O-])c2cc(Cl)c(Cl)cc2[n+]1[O-]`, the MIC in assay [1] amounted to 0.39 µg/mL (≈ 1.03 µM); in assay [2] it was 0.78 µg/mL (≈ 2.06 µM); in assay [3], 0.39 µg/mL (≈ 1.03 µM); in assay [4], 0.39 µg/mL (≈ 1.03 µM); in assay [5] it was 0.78 µg/mL (≈ 2.06 µM); in assay [6], 0.78 µg/mL (≈ 2.06 µM). Besides, it took 1.56 µg/mL (≈ 4.11 µM) to inhibit growth in assay [7] (MIC).
For `COC(=O)c1c(C)[n+]([O-])c2ccc(C)cc2[n+]1[O-]`, the MIC worked out at 3.13 µg/mL (≈ 12.6 µM) in assay [1]; 25 µg/mL (≈ 101 µM) in assay [2]; 25 µg/mL (≈ 101 µM) in assay [3]; 6.25 µg/mL (≈ 25.2 µM) in assay [4]; 3.13 µg/mL (≈ 12.6 µM) in assay [5]; 1.56 µg/mL (≈ 6.28 µM) in assay [6]. The same compound showed an MIC in assay [7] of 6.25 µg/mL (≈ 25.2 µM).
Turning to `COC(=O)c1c(C)[n+]([O-])c2cc(C)c(C)cc2[n+]1[O-]`, the MIC in assay [1] is 3.13 µg/mL (≈ 11.9 µM); in assay [2] it was not above 1.56 µg/mL; in assay [3] it was 3.13 µg/mL (≈ 11.9 µM); in assay [4], 3.13 µg/mL (≈ 11.9 µM); in assay [5], 3.13 µg/mL (≈ 11.9 µM); in assay [6], not above 1.56 µg/mL. The MIC in assay [7] stood at 3.13 µg/mL (≈ 11.9 µM).
On to `CCOC(=O)c1c(C)[n+]([O-])c2ccc(Cl)cc2[n+]1[O-]`, for which the MIC was 0.39 µg/mL (≈ 1.38 µM) in assay [1]; 0.39 µg/mL (≈ 1.38 µM) in assay [2]; 0.39 µg/mL (≈ 1.38 µM) in assay [3]; 0.78 µg/mL (≈ 2.76 µM) in assay [4]; 0.39 µg/mL (≈ 1.38 µM) in assay [7].
